The values that follow are results of earlier work, collected in patent US20220401317A1, “HYPOCHLORITE COMPOSITION AND SYSTEM AND METHOD FOR PREPARING A HYPOCHLORITE COMPOSITION AND USE OF THE SAME” (KONINKLIJKE PHILIPS N.V., priority 2019, published 2022).

Take `OCl` [hypochloric acid]: the pKa was 7.53.

A word on the pKa: it is the negative logarithm of the acid dissociation constant.
